According to patent US5968791A, “Plant lysophosphatidic acid acyltransferases” (Calgene, Inc., priority 1995, dated 1999):

molecular target: T1, coconut medium-chain LPAAT (Cocos nucifera, UniProt Q42670); assay: Assay of solubilized coconut LPAAT (S3 preparation) with phospholipid activation; assay type: biochemical; details: radioactivity of PA product resolved on TLC, after 30 min assay; S3 reactivated with PLs; acceptor 12:0-LPA
T1 construct: The frozen coconut P2 preparation is thawed and diluted in a volume of P2 Buffer; from tissue; host or cells: immature coconut endosperm, solubilized S3 supernatant of P2 membranes
T1 sequence (Q42670 1-308): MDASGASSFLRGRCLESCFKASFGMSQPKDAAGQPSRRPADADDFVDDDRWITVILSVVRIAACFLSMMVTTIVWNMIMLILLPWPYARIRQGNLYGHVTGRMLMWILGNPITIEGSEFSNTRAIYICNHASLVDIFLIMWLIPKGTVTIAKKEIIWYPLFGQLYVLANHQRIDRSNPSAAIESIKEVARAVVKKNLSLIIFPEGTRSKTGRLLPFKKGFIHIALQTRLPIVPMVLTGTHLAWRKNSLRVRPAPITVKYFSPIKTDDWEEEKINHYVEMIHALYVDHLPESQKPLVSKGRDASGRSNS
Method: After solubilization of LPAAT protein from plant membranes as described below, modification of the above assay conditions is required in order to detect maximum LPAAT activity. This is especially important after the solubilized LPAAT has been chromatographed on at least one column. The important modification to the assay is the addition, at the start of the assay procedure, of 1 μl of a concentrated phospholipid (PL) solution to 20 μl of the LPAAT-containing sample in a glass vial. The high concentrations of CHAPS (at least 1% w/v) and NaCl (typically 0.5M or greater) in the solubilized LPAAT preparation aid in dispersal of the phospholipids. The phospholipid solution is obtained by sonicating crude soybean phospholipids (L-phosphatidylcholine from soybean, "Type IVs" obtained from Sigma Chemical Company, St. Louis) at 50 mg/ml in 0.5% (w/v) CHAPS (3-[(3-cholamidopropyl) -dimethylammonio]-1-propane-sulfonate) until a uniform suspension is obtained.
The remaining assay ingredients (as described above), with the exception of the acyl-CoA substrate, are then added as 219 μl of a mixture. […] Radiolabeled acyl-CoA (10 μl, or an appropriately adjusted volume as indicated above) is added to start the LPAAT-catalyzed reaction and the rest of the assay procedure is completed as described above.
All steps are carried out at 0-4° C. The frozen coconut P2 preparation is thawed and diluted in a volume of P2 Buffer to achieve a protein concentration of 0.94 mg/ml P2 protein. Protein concentration is determined by Coomassie dye staining relative to a bovine serum albumin standard. The P2 membrane suspension is then diluted with an equal volume of Solubilization Buffer (50 mM HEPES-NaOH, pH 7.5, […], 20% (w/v) glycerol, 4.5% (w/v) CHAPS, 100 μM Pefabloc, 1 μM leupeptin, 1 μM Pepstatin A, and 5 mM β-ME), resulting in final concentrations of 1M NaCl, 2.25% (w/v) detergent, and 0.47 mg/ml protein. These component concentrations, and the resulting detergent/protein ratio of 48/1 (w/w), are important for optimal solubilization. The preparation is then incubated on ice for 30 minutes with occasional, gentle stirring, followed by centrifugation at 252,000×g for 2 hours. The resulting supernatant fraction (S3) is filtered through buffer-wetted Miracloth, and may then be stored frozen (-70) with only slight loss of activity. Optimally, it is applied to chromatography columns without an intervening freeze-thaw cycle.
Assay of the coconut medium-chain LPAAT activity after solubilization (S3 preparation) and reactivation with PLs, using different acyl-CoA substrates, provides the following results (Table 3). In all these assays the acceptor substrate is 12:0-LPA.

| SMILES | LPAAT Activity, solubilized coconut LPAAT [cpm] |
| --- | --- |
| CCCCCCCC/C=C\CCCCCCCC(=O)SCCNC(=O)CCNC(=O)[C@H](O)C(C)(C)COP(=O)(O)OP(=O)(O)OC[C@H]1O[C@@H](n2cnc3c(N)ncnc32)[C@H](O)[C@@H]1OP(=O)(O)O [18:1, oleoyl-CoA] | 30 |
| CCCCCCCC(=O)SCCNC(=O)CCNC(=O)[C@H](O)C(C)(C)COP(=O)(O)OP(=O)(O)OC[C@H]1O[C@@H](n2cnc3c(N)ncnc32)[C@H](O)[C@@H]1OP(=O)(O)O [8:0] | 16 |
| CCCCCCCCCCCC(=O)SCCNC(=O)CCNC(=O)[C@H](O)C(C)(C)COP(=O)(O)OP(=O)(O)OC[C@H]1O[C@@H](n2cnc3c(N)ncnc32)[C@H](O)[C@@H]1OP(=O)(O)O [12:0, lauroyl-CoA] | 205 |
| CCCCCCCCCC(=O)SCCNC(=O)CCNC(=O)[C@H](O)C(C)(C)COP(=O)(O)OP(=O)(O)OC[C@H]1O[C@@H](n2cnc3c(N)ncnc32)[C@H](O)[C@@H]1OP(=O)(O)O [10:0] | 162 |
| CCCCCCCCCCCCCCCC(=O)SCCNC(=O)CCNC(=O)[C@H](O)C(C)(C)COP(=O)(O)OP(=O)(O)OC[C@H]1O[C@@H](n2cnc3c(N)ncnc32)[C@H](O)[C@@H]1OP(=O)(O)O [16:0] | 18 |
| CCCCCCCCCCCCCC(=O)SCCNC(=O)CCNC(=O)[C@H](O)C(C)(C)COP(=O)(O)OP(=O)(O)OC[C@H]1O[C@@H](n2cnc3c(N)ncnc32)[C@H](O)[C@@H]1OP(=O)(O)O [14:0] | 84 |
